Reference: PubChem BioAssay (NCI)
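Exposure lasted 48 hours, with cells grown in 96-well plates and compounds tested at five concentrations. GI50 marks 50% less growth. TGI: total growth inhibition.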

How the values were obtained:
Assay in all cases: NCI anticancer screen, dose series, 48 h
IGROV1 ovarian = test system: IGROV1 ovarian
K-562 leukemia = test system: K-562 leukemia
SK-MEL-2 melanoma = test system: SK-MEL-2 melanoma
CAKI-1 renal = test system: CAKI-1 renal
PC-3 prostate = test system: PC-3 prostate
UO-31 renal = test system: UO-31 renal
SNB-19 CNS = test system: SNB-19 CNS
U251 CNS = test system: U251 CNS
UACC-62 melanoma = test system: UACC-62 melanoma
NCI-H23 lung = test system: NCI-H23 lung
SK-OV-3 ovarian = test system: SK-OV-3 ovarian
RPMI-8226 leukemia = test system: RPMI-8226 leukemia
MCF7 breast = test system: MCF7 breast
T-47D breast = test system: T-47D breast
A549 NSCLC = test system: A549 NSCLC
HCT-116 colon = test system: HCT-116 colon
UACC-257 melanoma = test system: UACC-257 melanoma
HOP-62 NSCLC = test system: HOP-62 NSCLC
OVCAR-4 ovarian = test system: OVCAR-4 ovarian
HT29 colon = test system: HT29 colon
HOP-92 NSCLC = test system: HOP-92 NSCLC
HL-60(TB) leukemia = test system: HL-60(TB) leukemia
HCT-15 colon = test system: HCT-15 colon
M14 melanoma = test system: M14 melanoma
MDA-MB-231 breast = test system: MDA-MB-231 breast
SF-539 CNS = test system: SF-539 CNS
HCC-2998 colon = test system: HCC-2998 colon
SR leukemia = test system: SR leukemia
SF-268 CNS = test system: SF-268 CNS
COLO 205 colon = test system: COLO 205 colon
OVCAR-3 ovarian = test system: OVCAR-3 ovarian
MALME-3M melanoma = test system: MALME-3M melanoma
KM12 colon = test system: KM12 colon
SK-MEL-5 melanoma = test system: SK-MEL-5 melanoma
TK-10 renal = test system: TK-10 renal
SW-620 colon = test system: SW-620 colon
MDA-MB-435 = test system: MDA-MB-435
BT-549 breast = test system: BT-549 breast
OVCAR-5 ovarian = test system: OVCAR-5 ovarian
NCI-H460 lung = test system: NCI-H460 lung
ACHN renal = test system: ACHN renal
OVCAR-8 ovarian = test system: OVCAR-8 ovarian
786-0 renal = test system: 786-0 renal
NCI-H226 lung = test system: NCI-H226 lung
LOX IMVI melanoma = test system: LOX IMVI melanoma
HS 578T breast = test system: HS 578T breast
SF-295 CNS = test system: SF-295 CNS
NCI-H522 lung = test system: NCI-H522 lung
RXF 393 renal = test system: RXF 393 renal
SNB-75 CNS = test system: SNB-75 CNS
DU-145 prostate = test system: DU-145 prostate
NCI/ADR-RES ovarian = test system: NCI/ADR-RES ovarian
MOLT-4 leukemia = test system: MOLT-4 leukemia
SK-MEL-28 melanoma = test system: SK-MEL-28 melanoma
CCRF-CEM leukemia = test system: CCRF-CEM leukemia
SN12C renal = test system: SN12C renal
A498 renal = test system: A498 renal

`CC(=O)N1CCC(Nc2ncc3cc(Oc4ccc(F)cc4F)c(=O)n(C)c3n2)CC1` was tested, and the GI50 (IGROV1 ovarian) was greater than 25 µM, the TGI (IGROV1 ovarian) was greater than 25 µM and the GI50 (K-562 leukemia) was greater than 25 µM. It also gave a TGI (K-562 leukemia) greater than 25 µM, a GI50 (SK-MEL-2 melanoma) greater than 25 µM and a TGI (SK-MEL-2 melanoma) greater than 25 µM. The GI50 (CAKI-1 renal) was greater than 25 µM, the TGI (CAKI-1 renal) was greater than 25 µM and the GI50 (PC-3 prostate) was greater than 25 µM. For the same compound, the TGI (PC-3 prostate) was greater than 25 µM, the GI50 (UO-31 renal) was greater than 17.7 µM and the TGI (UO-31 renal) was greater than 25 µM. It also gave a GI50 (SNB-19 CNS) greater than 25 µM, a TGI (SNB-19 CNS) greater than 25 µM and a GI50 (U251 CNS) greater than 25 µM. For the same compound, the TGI (U251 CNS) was greater than 25 µM, the GI50 (UACC-62 melanoma) was greater than 25 µM and the TGI (UACC-62 melanoma) was greater than 25 µM. The GI50 (NCI-H23 lung) was greater than 25 µM, the TGI (NCI-H23 lung) was greater than 25 µM and the GI50 (SK-OV-3 ovarian) was greater than 25 µM. It also gave a TGI (SK-OV-3 ovarian) greater than 25 µM, a GI50 (RPMI-8226 leukemia) greater than 25 µM and a TGI (RPMI-8226 leukemia) greater than 25 µM. For the same compound, the GI50 (MCF7 breast) was greater than 25 µM, the TGI (MCF7 breast) was greater than 25 µM and the GI50 (T-47D breast) was greater than 25 µM. The TGI (T-47D breast) was greater than 25 µM, the GI50 (A549 NSCLC) was greater than 25 µM and the TGI (A549 NSCLC) was greater than 25 µM. For the same compound, the GI50 (HCT-116 colon) was greater than 25 µM, the TGI (HCT-116 colon) was greater than 25 µM and the GI50 (UACC-257 melanoma) was greater than 25 µM. For the same compound, the TGI (UACC-257 melanoma) was greater than 25 µM, the GI50 (HOP-62 NSCLC) was greater than 25 µM and the TGI (HOP-62 NSCLC) was greater than 25 µM. The GI50 (OVCAR-4 ovarian) was greater than 18.8 µM, the TGI (OVCAR-4 ovarian) was greater than 25 µM and the GI50 (HT29 colon) was greater than 25 µM. It also gave a TGI (HT29 colon) greater than 25 µM, a GI50 (HOP-92 NSCLC) of 2.45 µM and a TGI (HOP-92 NSCLC) greater than 25 µM. The GI50 (HL-60(TB) leukemia) was greater than 25 µM, the TGI (HL-60(TB) leukemia) was greater than 25 µM and the GI50 (HCT-15 colon) was greater than 25 µM. The TGI (HCT-15 colon) was greater than 25 µM, the GI50 (M14 melanoma) was greater than 25 µM and the TGI (M14 melanoma) was greater than 25 µM. It also gave a GI50 (MDA-MB-231 breast) greater than 25 µM, a TGI (MDA-MB-231 breast) greater than 25 µM and a GI50 (SF-539 CNS) greater than 25 µM. For the same compound, the TGI (SF-539 CNS) was greater than 25 µM, the GI50 (HCC-2998 colon) was greater than 25 µM and the TGI (HCC-2998 colon) was greater than 25 µM. It also gave a GI50 (SR leukemia) greater than 25 µM, a TGI (SR leukemia) greater than 25 µM and a GI50 (SF-268 CNS) greater than 25 µM. For the same compound, the TGI (SF-268 CNS) was greater than 25 µM, the GI50 (COLO 205 colon) was greater than 25 µM and the TGI (COLO 205 colon) was greater than 25 µM. It also gave a GI50 (OVCAR-3 ovarian) greater than 25 µM, a TGI (OVCAR-3 ovarian) greater than 25 µM and a GI50 (MALME-3M melanoma) greater than 25 µM. For the same compound, the TGI (MALME-3M melanoma) was greater than 25 µM, the GI50 (KM12 colon) was greater than 25 µM and the TGI (KM12 colon) was greater than 25 µM. It also gave a GI50 (SK-MEL-5 melanoma) greater than 25 µM, a TGI (SK-MEL-5 melanoma) greater than 25 µM and a GI50 (TK-10 renal) greater than 25 µM. The TGI (TK-10 renal) was greater than 25 µM, the GI50 (SW-620 colon) was greater than 25 µM and the TGI (SW-620 colon) was greater than 25 µM. It also gave a GI50 (MDA-MB-435) greater than 25 µM, a TGI (MDA-MB-435) greater than 25 µM and a GI50 (BT-549 breast) greater than 25 µM. For the same compound, the TGI (BT-549 breast) was greater than 25 µM, the GI50 (OVCAR-5 ovarian) was greater than 25 µM and the TGI (OVCAR-5 ovarian) was greater than 25 µM. For the same compound, the GI50 (NCI-H460 lung) was greater than 25 µM, the TGI (NCI-H460 lung) was greater than 25 µM and the GI50 (ACHN renal) was greater than 25 µM. The TGI (ACHN renal) was greater than 25 µM, the GI50 (OVCAR-8 ovarian) was greater than 25 µM and the TGI (OVCAR-8 ovarian) was greater than 25 µM. For the same compound, the GI50 (786-0 renal) was greater than 25 µM, the TGI (786-0 renal) was greater than 25 µM and the GI50 (NCI-H226 lung) was greater than 25 µM. The TGI (NCI-H226 lung) was greater than 25 µM, the GI50 (LOX IMVI melanoma) was greater than 25 µM and the TGI (LOX IMVI melanoma) was greater than 25 µM. It also gave a GI50 (HS 578T breast) of 8.69 µM, a TGI (HS 578T breast) greater than 25 µM and a GI50 (SF-295 CNS) greater than 25 µM. It also gave a TGI (SF-295 CNS) greater than 25 µM, a GI50 (NCI-H522 lung) greater than 25 µM and a TGI (NCI-H522 lung) greater than 25 µM. The GI50 (RXF 393 renal) was greater than 16.9 µM, the TGI (RXF 393 renal) was greater than 25 µM and the GI50 (SNB-75 CNS) was greater than 22 µM. The TGI (SNB-75 CNS) was greater than 25 µM, the GI50 (DU-145 prostate) was greater than 25 µM and the TGI (DU-145 prostate) was greater than 25 µM. The GI50 (NCI/ADR-RES ovarian) was greater than 25 µM, the TGI (NCI/ADR-RES ovarian) was greater than 25 µM and the GI50 (MOLT-4 leukemia) was greater than 25 µM. For the same compound, the TGI (MOLT-4 leukemia) was greater than 25 µM, the GI50 (SK-MEL-28 melanoma) was greater than 25 µM and the TGI (SK-MEL-28 melanoma) was greater than 25 µM. It also gave a GI50 (CCRF-CEM leukemia) greater than 25 µM, a TGI (CCRF-CEM leukemia) greater than 25 µM and a GI50 (SN12C renal) greater than 25 µM. It also gave a TGI (SN12C renal) greater than 25 µM, a GI50 (A498 renal) of 9.26 µM and a TGI (A498 renal) greater than 25 µM.
